Values quoted from earlier work in US12097195B2, “Pharmaceutical composition containing alkynyl compound and preparation method and application thereof” (ASCENTAGE PHARMA (SUZHOU) CO., LTD., priority 2019, dated 2024).

In the case of `Cc1ccc(C(=O)Nc2ccc(CN3CCN(C)CC3)c(C(F)(F)F)c2)cc1C#Cc1cnc2[nH]ncc2c1` [alknyl compound, 3-((1H-pyrazolo[3,4-b]pyridin-5-yl)ethynyl)-4-methyl-N-(4-((4-methylpiperazin-1-yl)methyl)-3-(trifluoromethyl)phenyl)-benzamide], the inhibition rate (acute leukemia MOLT) is given as “very good inhibition rate” and the inhibition rate (chronic leukemia K562) is given as “very good inhibition rate”.
